Measured values taken from US20240041042A1, “1-(PYRIDYL)-5-AZINYLPYRAZOLE DERIVATIVES, AND THEIR USE FOR CONTROL OF UNDESIRED PLANT GROWTH” (Bayer Aktiengesellschaft, priority 2020, published 2024).
Like-named read-outs stand apart in the source and are kept apart here.

Experiments:
Format in all cases: in vivo
[1] = tested on: Echinochloa crus-galli (ECHCG); assay: Pre-emergence herbicidal action against ECHCG
Summary of the method: (§1)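 Application rates ran to 320 g/ha or lower, with several dosages tested on the same weeds. The compound, as wettable powder or emulsion concentrate, is sprayed pre-emergence onto soil over sown seeds; greenhouse growth follows, and effect is rated visually after roughly 3 weeks.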

[2] = tested on: Verconica persica (VERPE); assay: Pre-emergence herbicidal action against VERPE; settings: dosage 320 g/ha
Summary of the method: as §1

[3] = tested on: Alopecurus myosuroides (ALOMY); assay: Pre-emergence herbicidal action against ALOMY; settings: scored visually after about 3 weeks, 100% = plants have died
Summary of the method: as §1

Lolium rigidum (LOLRI) [4] = assay: Pre-emergence herbicidal action against LOLRI
Summary of the method: as §1

[5] = tested on: Echinochloa crus-galli (ECHCG); assay: Post-emergence herbicidal action against ECHCG
Summary of the method: (§2)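 Doses of 320 g/ha or lower, suffixes a, b and c marking different dosages, were applied post-emergence at the one-leaf stage in 600 l/ha water with 0.5% additive. Damage was assessed visually after about 3 weeks in the greenhouse.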

[6] = tested on: Matricaria inodora (MATIN); assay: Pre-emergence herbicidal action against MATIN
Summary of the method: as §1

[7] = tested on: Pharbitis purpurea (PHBPU); assay: Pre-emergence herbicidal action against PHBPU
Summary of the method: as §1

Avena fatua (AVEFA) [8] = assay: Pre-emergence herbicidal action against AVEFA; settings: 320 g/ha, visual scoring after about 3 weeks vs untreated controls
Summary of the method: as §1

[9] = tested on: Matricaria inodora (MATIN); assay: Post-emergence herbicidal action against MATIN; settings: dosage 80 g/ha
Summary of the method: as §2

Lolium rigidum (LOLRI) [10] = assay: Post-emergence herbicidal action against LOLRI; settings: dosage 80 g/ha
Summary of the method: as §2

Zea mays (ZEAMX) = settings: for Post-emergence action against ZEAMX in % (crop plant compatibility): 20 g/ha, effect in comparison to untreated controls; for Post-emergence action against ZEAMX in %: crop plant compatibility, 80 g/ha, effect vs untreated controls
Summary of the method: (§3)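 Visual rating (% effect vs. untreated plants; 100% = plant death) made about 3 weeks after treatment. Plants had been sprayed at one-leaf stage, 2–3 weeks post-sowing, with aqueous WP/EC preparations containing 0.5% additive, 600 l/ha water volume; a, b, c mark dose levels.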

Oryza sativa (ORYSA) = settings: crop plant compatibility
Summary of the method: as §3

[11] = tested on: Triticum aestivum (TRZAS); settings: crop plant compatibility, effect vs untreated controls
Summary of the method: as §3

[12] = tested on: Polygonum convolvulus (POLCO); assay: Post-emergence herbicidal action against POLCO
Summary of the method: as §2

Viola tricolor (VIOTR) [13] = assay: Pre-emergence herbicidal action against VIOTR; settings: 320 g/ha, Viola tricolor
Summary of the method: as §1

Setaria viridis (SETVI) [14] = assay: Post-emergence herbicidal action against SETVI
Summary of the method: as §2

[15] = tested on: Amaranthus retroflexus (AMARE); assay: Post-emergence herbicidal action against AMARE
Summary of the method: as §2

Avena fatua (AVEFA) [16] = assay: Post-emergence herbicidal action against AVEFA; settings: 80 g/ha, visual rating about 3 weeks after treatment
Summary of the method: as §2

[17] = tested on: Amaranthus retroflexus (AMARE); assay: Pre-emergence herbicidal action against AMARE; settings: visual scoring after about 3 weeks vs untreated controls
Summary of the method: as §1

[18] = tested on: Verconica persica (VERPE); assay: Post-emergence herbicidal action against VERPE
Summary of the method: as §2

Setaria viridis (SETVI) [19] = assay: Pre-emergence herbicidal action against SETVI; settings: dosage 320 g/ha
Summary of the method: as §1

[20] = tested on: Pharbitis purpurea (PHBPU); assay: Post-emergence herbicidal action against PHBPU; settings: dosage 80 g/ha
Summary of the method: as §2

[21] = tested on: Polygonum convolvulus (POLCO); assay: Pre-emergence herbicidal action against POLCO; settings: dosage 320 g/ha
Summary of the method: as §1

[22] = tested on: Alopecurus myosuroides (ALOMY); assay: Post-emergence herbicidal action against ALOMY; settings: visual rating about 3 weeks after treatment vs untreated controls (100% = plants have died, 0% = like control plants)
Summary of the method: as §2

[23] = tested on: Abutilon theophrasti (ABUTH); assay: Post-emergence herbicidal action against ABUTH; settings: visual rating about 3 weeks after treatment vs untreated controls (100% = plants have died, 0% = like control plants)
Summary of the method: as §2

Viola tricolor (VIOTR) [24] = assay: Post-emergence herbicidal action against VIOTR
Summary of the method: as §2

[25] = tested on: Digitaria sanguinalis (DIGSA); assay: Post-emergence herbicidal action against DIGSA; settings: 320 g/ha, visual rating about 3 weeks after treatment
Summary of the method: as §2

[26] = 20 g/ha, effect vs untreated controls
[27] = 80 g/ha, effect in comparison to untreated controls

COC(=O)CCOC(=O)COc1nn(-c2ccccn2)c(-c2cncc(F)c2)c1Cl [Example I-75]
Pre-emergence action against ECHCG in % ([1]; dosage 80 g/ha): 80% | Pre-emergence action against ECHCG in % ([1]; dosage 320 g/ha): 100% | Pre-emergence action against VERPE in % [2]: 90% | Pre-emergence action against ALOMY ([3]; 80 g/ha): 80% | Pre-emergence action against ALOMY ([3]; 320 g/ha): 90% | Pre-emergence action against LOLRI in % (Lolium rigidum (LOLRI) [4]; dosage 80 g/ha): 80% | Pre-emergence action against LOLRI in % (Lolium rigidum (LOLRI) [4]; dosage 320 g/ha): 100% | Post-emergence action against ECHCG in % ([5]; dosage 80 g/ha): 90% | Pre-emergence action against MATIN in % ([6]; dosage 80 g/ha): 90% | Pre-emergence action against MATIN in % ([6]; dosage 320 g/ha): 90% | Pre-emergence action against PHBPU in % ([7]; dosage 80 g/ha): 90% | Pre-emergence action against PHBPU in % ([7]; dosage 320 g/ha): 90% | Pre-emergence action against AVEFA in % (Avena fatua (AVEFA) [8]): 80% | Post-emergence action against MATIN in % [9]: 90% | Post-emergence action against LOLRI in % (Lolium rigidum (LOLRI) [10]): 90% | Post-emergence action against ZEAMX in % (crop plant compatibility) (Zea mays (ZEAMX)): 10% | Post-emergence action against ZEAMX in % (Zea mays (ZEAMX)): 20% | Post-emergence action against ORYSA in % (Oryza sativa (ORYSA); [26]): 0% | Post-emergence action against ORYSA in % (Oryza sativa (ORYSA); [27]): 0% | Post-emergence action against TRZAS in % ([11]; 20 g/ha): 20% | Post-emergence action against POLCO in % ([12]; dosage 80 g/ha): 90% | Pre-emergence action against VIOTR in % (Viola tricolor (VIOTR) [13]): 100% | Post-emergence action against SETVI in % (Setaria viridis (SETVI) [14]; dosage 80 g/ha): 80% | Post-emergence action against AMARE in % ([15]; 80 g/ha, visual rating about 3 weeks after treatment vs untreated controls (100% = plants have died, 0% = like control plants)): 80% | Post-emergence action against AVEFA in % (Avena fatua (AVEFA) [16]): 80% | Pre-emergence action against AMARE in % ([17]; 80 g/ha): 80% | Pre-emergence action against AMARE in % ([17]; 320 g/ha): 90% | Post-emergence action against VERPE in % ([18]; dosage 80 g/ha): 80% | Pre-emergence action against SETVI in % (Setaria viridis (SETVI) [19]): 100% | Post-emergence action against PHBPU in % [20]: 90% | Pre-emergence action against POLCO in % [21]: 90% | Post-emergence action against ALOMY in % ([22]; 80 g/ha): 90% | Post-emergence action against ABUTH in % ([23]; 80 g/ha): 80%

COC(=O)COc1nn(-c2cccnc2C)c(-c2cncc(F)c2)c1Cl [II-44]
Post-emergence action against VIOTR in % (Viola tricolor (VIOTR) [24]; 80 g/ha): 80% | Post-emergence action against VIOTR in % (Viola tricolor (VIOTR) [24]; 320 g/ha): 90% | Post-emergence action against ECHCG in % ([5]; dosage 320 g/ha): 90% | Post-emergence action against ZEAMX in % (crop plant compatibility) (Zea mays (ZEAMX)): 0% | Post-emergence action against ZEAMX in % (Zea mays (ZEAMX)): 0% | Post-emergence action against ORYSA in % (Oryza sativa (ORYSA); [26]): 0% | Post-emergence action against ORYSA in % (Oryza sativa (ORYSA); [27]): 0% | Post-emergence action against TRZAS in % ([11]; 20 g/ha): 20% | Post-emergence action against TRZAS in % ([11]; 80 g/ha): 20% | Post-emergence action against POLCO in % ([12]; dosage 320 g/ha): 90% | Post-emergence action against SETVI in % (Setaria viridis (SETVI) [14]; dosage 320 g/ha): 90% | Post-emergence action against AMARE in % ([15]; 320 g/ha, visual rating about 3 weeks after treatment): 90% | Post-emergence action against VERPE in % ([18]; 320 g/ha, VERPE): 90% | Post-emergence action against VERPE in % ([18]; dosage 80 g/ha): 80% | Post-emergence action against ALOMY in % ([22]; 320 g/ha): 100% | Post-emergence action against ABUTH in % ([23]; 320 g/ha): 80% | Post-emergence action against DIGSA in % [25]: 80%
